Reference: ChEMBL document CHEMBL1201862, “PubChem BioAssay data set” (2004)
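Five compound concentrations were applied to cells in 96-well plates for 48 hours; endpoints were derived by simple linear interpolation of the resulting dose-response curve. GI50 = concentration required for 50% inhibition of growth.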 Calls of active or inactive are those of the source. Cut-off read from the data, not from the text of the source: active = GI50 up to about 1.1 µM and inactive = higher.

Columns and labels:
Test in all cases: NCI anticancer screen, dose series, 48 h
[1] = test system: HL-60
[2] = test system: CAKI-1
[3] = test system: HCT-15
[4] = test system: BT-549
[5] = test system: M14
[6] = test system: PC-3
[7] = test system: OVCAR-4
[8] = test system: HOP-62
[9] = test system: EKVX
[10] = test system: NCI/ADR-RES
[11] = test system: UACC-257
[12] = test system: Malme-3M
[13] = test system: MCF7
[14] = test system: NCI-H23
[15] = test system: SW-620
[16] = test system: IGROV-1
[17] = test system: MDA-MB-231
[18] = test system: MOLT-4
[19] = test system: U-251
[20] = test system: A498
[21] = test system: SNB-19
[22] = test system: COLO 205
[23] = test system: OVCAR-8
[24] = test system: RXF 393
[25] = test system: OVCAR-3
[26] = test system: SK-MEL-5
[27] = test system: 786-0
[28] = test system: NCI-H522
[29] = test system: Hs-578T
[30] = test system: SK-MEL-2
[31] = test system: NCI-H460
[32] = test system: A549
[33] = test system: SR
[34] = test system: CCRF-CEM
[35] = test system: HCC 2998
[36] = test system: UACC-62
[37] = test system: OVCAR-5
[38] = test system: HOP-92
[39] = test system: K562
[40] = test system: MDA-MB-435
[41] = test system: RPMI-8226
[42] = test system: SF-539
[43] = test system: SK-OV-3
[44] = test system: NCI-H226
[45] = test system: SK-MEL-28
[46] = test system: SNB-75
[47] = test system: UO-31
[48] = test system: HCT-116
[49] = test system: ACHN
[50] = test system: KM12
[51] = test system: SF-268
[52] = test system: HT-29
[53] = test system: SF-295
[54] = test system: SN12C
[55] = test system: LOX IMVI
[56] = test system: TK-10
[57] = test system: T47D
[58] = test system: MDA-N

Measured: GI50

O=S(=O)(Oc1ccc2ccccc2c1-c1c(OS(=O)(=O)C(F)(F)F)ccc2ccccc12)C(F)(F)F
32.4 µM: [3]
inactive: [1] 11.3 µM | [2] > 100 µM | [4] > 100 µM | [5] 91.8 µM | [6] 12.7 µM | [7] 4.2 µM | [8] > 100 µM | [9] 66.4 µM | [10] 84.5 µM | [11] 1.32 µM | [12] > 100 µM | [13] > 100 µM | [14] 75.2 µM | [15] > 100 µM | [16] > 100 µM | [17] 42.7 µM | [18] 12.8 µM | [19] 32.1 µM | [20] 26.4 µM | [21] > 100 µM | [22] > 100 µM | [23] > 100 µM | [24] 43.4 µM | [25] 41.8 µM | [26] 7.01 µM | [27] > 100 µM | [28] 37.7 µM | [29] > 100 µM | [30] > 100 µM | [31] 20 µM | [32] 35 µM | [33] 7.67 µM | [34] 29.3 µM | [35] 31 µM | [36] > 100 µM | [37] > 100 µM | [38] 12.5 µM | [39] 16.9 µM | [40] 45.5 µM | [41] 27.5 µM | [42] > 100 µM | [43] > 100 µM | [44] 79.1 µM | [45] > 100 µM | [46] > 100 µM | [47] 37.8 µM | [48] 9.64 µM | [49] 2.75 µM | [50] > 100 µM | [51] > 100 µM | [52] 41.9 µM | [53] > 100 µM

COC(=O)/C=C/c1ccc2c(c1)CC1(Cc3ccccc3C1)C2
inactive: [1] 30.5 µM | [5] > 100 µM | [6] > 100 µM | [54] > 100 µM | [7] > 100 µM | [8] > 100 µM | [9] 23.6 µM | [10] > 100 µM | [55] > 100 µM | [11] > 100 µM | [12] > 100 µM | [13] > 100 µM | [14] 55.7 µM | [16] > 100 µM | [17] > 100 µM | [18] 34.9 µM | [19] > 100 µM | [56] > 100 µM | [20] > 100 µM | [57] > 100 µM | [22] > 100 µM | [23] > 100 µM | [24] 16.5 µM | [25] > 100 µM | [26] 43.2 µM | [27] > 100 µM | [28] 56.9 µM | [29] 23.6 µM | [30] > 100 µM | [33] 32.6 µM | [34] 28 µM | [35] > 100 µM | [36] 15.2 µM | [37] > 100 µM | [38] > 100 µM | [39] 37.5 µM | [40] 41.3 µM | [41] 60.7 µM | [42] > 100 µM | [43] > 100 µM | [44] > 100 µM | [47] > 100 µM | [49] > 100 µM | [50] > 100 µM | [52] 79.4 µM | [53] > 100 µM | [58] 87.5 µM
> 100 µM: [3]
active: [32] 0.0463 µM | [48] 0.0478 µM
